Measurements: patent US7326403B2, “Radioactive iodine-labeled compound” (FUJIFILM Corporation, priority 2003, dated 2008)

Columns and labels:
[1] = test system: SHIN-III (human ovary cancer cell); test: Uptake experiment in tumor cells (SHIN-III); assay type: cell-based; conditions: for uptake, percent dose converted to 100,000 cells: SHIN-III, 0.5 μCi, mean ± S.D.
Protocol: (§1) (i) LS180 (Human Colon Cancer Cell), SHIN-III (Human Ovary Cancer Cell) and U87MG (Glioma)
(§2) A commercially available medium, RPMI1640 (Nissui, 5.1 g), was dissolved in extra pure water (500 ml), autoclaved, and added with L-glutamine (0.15 g), Meylon (7% aqueous sodium hydrogencarbonate, a pharmaceutical preparation for injection, 14 ml) and FBS (55 ml) in a clean bench to prepare a medium. Cells were cultured in this medium.
(§3) Cells cryopreserved in a medium containing 10% DMSO were thawed, transferred to a 15-ml Falcon tube, and added with PBS to a volume of 5 ml. The mixture was centrifuged at 1300 rpm for 5 minutes. The supernatant was removed by suction, and the precipitates were suspended in PBS (5 ml). The suspension was centrifuged again at 1300 rpm for 5 minutes. The supernatant was removed by suction, and the precipitates were suspended in a medium (10 ml), inoculated in a 10-cm dish and left standing at 37° C. in a 5% CO2 incubator.
(§4) After 3 days, when the cells were proliferated to 80 to 90% of the 10-cm dish, the cells were subcultured in a 15-cm dish.
(§5) The 10-cm dish was taken out from the incubator, and the supernatant was removed by suction. The cells were washed three times with PBS, added with trypsin-EDTA (0.05% trypsin, 0.53 mM EDTA tetrasodium salt, 1 ml) and PBS (1 ml) and left standing in a CO2 incubator for 10 minutes. The dish was taken out from the incubator, and separation of the cells was observed. Then, the cells were transferred to a 15-ml Falcon tube. The cells were added with PBS to a volume of 5 ml and centrifuged at 1300 rpm for 5 minutes, and the supernatant was removed by suction. The precipitates were suspended in PBS (5 ml) and centrifuged at 1300 rpm for 5 minutes, and the supernatant was removed by suction. The precipitates were suspended in a medium (8 ml), and inoculated in a volume of 4 ml each to two of 15-cm dishes, to which the medium (16 ml) was added beforehand, and left standing at 37° C. in a 5% CO2 incubator.
(§6) Two days before the uptake experiment, the cells were inoculated on a 24-well plate ([…] of cell-suspended medium/well, 5 wells/plate per one type of cell). […] For the 4 wells to which the compound of the present invention was added, the cells were separated with 0.2 N NaOH and subjected to measurement of radioactivity. For the remaining 1 well, trypsin-EDTA was added to separate the cells, and the number of cells was counted by using a blood cell counter. Percent doses, which were converted to values for 100,000 cells based on the number of cells and radioactivity, and ratios relative to the normal cells (NIH3T3) were calculated. […]

[2] = test system: SHIN-III human ovary cancer cells (tumor tissue vs muscle tissue); test: Distribution experiment in vivo, nude mice transplanted with SHIN-III; conditions: 18.5 kBq via caudal vein, 5, 10 and 30 minutes, FIG. 1
Protocol: 1.0×10^6 cells of SHIN-III human ovary cancer cells were subcutaneously inoculated in the femoral region of nude mice (male, 5-week old). […] After 5 minutes, 10 minutes and 30 minutes, the mice were sacrificed, and the weight and radioactivity of each organ were measured.

[3] = test system: NIH3T3 (fibroblast, control); test: Uptake experiment in normal control cells (NIH3T3); assay type: cell-based; conditions: 0.5 μCi, mean ± S.D.
Protocol: (ii) NIH3T3 (Fibroblast, Control)
as §2, with “DMEM medium (Nissui)” for “medium, RPMI1640 (Nissui, 5.1 g),”
as §3
After 1 week, when the cells were proliferated to 80 to 90% of the 10-cm dish, the cells were subcultured in a 15-cm dish.
The 10-cm dish was taken out from the incubator, and the supernatant was removed by suction. The cells were washed three times with PBS, added with trypsin-EDTA (0.05% trypsin, 0.53 mM EDTA tetrasodium salt, 1 ml) and PBS (1 ml) and left standing in a CO2 incubator for 10 minutes. The dish was taken out from the incubator, and separation of the cells was observed. Then, the cells were transferred to a 15-ml Falcon tube. […]
as §6

U87MG (glioma) = test: Uptake experiment in tumor cells (U87MG); assay type: cell-based; conditions: for uptake, percent dose converted to 100,000 cells: U87MG, 0.5 μCi, mean ± S.D.
Protocol: as §1, §2, §3, §4, §5, §6

[4] = test system: LS180 (human colon cancer cell); test: Uptake experiment in tumor cells (LS180); assay type: cell-based; conditions: for uptake, percent dose converted to 100,000 cells: 0.5 μCi, mean ± S.D.
Protocol: as §1, §2, §3, §4, §5, §6

## CCn1c(=O)/c(=C2\Sc3ccccc3N2Cc2ccc([125I])cc2)s/c1=C\c1cccc[n+]1CC [the compound of the present invention]
[1]; SHIN-III vs NIH3T3
  uptake ratio relative to the normal cells (NIH3T3): about seven
[1]; after 30 minutes
  uptake, percent dose converted to 100,000 cells: 6.26 ± 0.73 % dose/100000 cells
[1]; after 1 hour
  uptake, percent dose converted to 100,000 cells: 11.7 ± 1.16 % dose/100000 cells
[1]; after 3 hours
  uptake, percent dose converted to 100,000 cells: 25.2 ± 2.42 % dose/100000 cells
[2]
  accumulation in the tumor tissue and muscle tissue: accumulate in a higher concentration in the tumor tissue than in the muscle
[3]; after 30 minutes
  uptake, percent dose converted to 100,000 cells: 1.40 ± 0.03 % dose/100000 cells
[3]; after 1 hour
  uptake, percent dose converted to 100,000 cells: 2.12 ± 0.14 % dose/100000 cells
[3]; after 3 hours
  uptake, percent dose converted to 100,000 cells: 3.34 ± 0.18 % dose/100000 cells
U87MG (glioma); U87MG vs NIH3T3
  uptake ratio relative to the normal cells (NIH3T3): about 7 times
U87MG (glioma); after 30 minutes
  uptake, percent dose converted to 100,000 cells: 3.19 ± 1.86 % dose/100000 cells
U87MG (glioma); after 1 hour
  uptake, percent dose converted to 100,000 cells: 3.07 ± 0.09 % dose/100000 cells
U87MG (glioma); after 3 hours
  uptake, percent dose converted to 100,000 cells: 5.32 ± 0.70 % dose/100000 cells
[4]; LS180, after 30 minutes
  uptake, percent dose converted to 100,000 cells: 3.37 ± 0.31 % dose/100000 cells
[4]; LS180, after 1 hour
  uptake, percent dose converted to 100,000 cells: 5.33 ± 0.43 % dose/100000 cells
[4]; LS180, after 3 hours
  uptake, percent dose converted to 100,000 cells: 10.2 ± 0.97 % dose/100000 cells
[4]; LS180 vs NIH3T3
  uptake ratio relative to the normal cells (NIH3T3): about three
